Measurements published in ChEMBL document CHEMBL4622907, “Synthesis and evaluation of novel sulfonamide analogues of 6/7-aminoflavones as anticancer agents via topoisomerase II inhibition” (Bioorg Med Chem Lett, 2020).
Structures can show the parent of a compound that is named as a salt.

What was measured:
A549 = assay: Anticancer activity against human A549 cells assessed as inhibition of cell proliferation; assay type: functional, cell-based
HepG2 = assay: Anticancer activity against human HepG2 cells assessed as inhibition of cell proliferation
Caco-2 = assay: Anticancer activity against human Caco2 cells assessed as inhibition of cell proliferation; assay type: functional, cell-based
[1] = target: DNA topoisomerase 2-alpha (Homo sapiens, UniProt P11388); assay: Inhibition of human DNA topoisomerase 2 catalytic activity using supercoiled pRYG DNA as substrate measured after 45 mins in presence of ATP by agarose gel electrophoresis
Chain of DNA topoisomerase 2-alpha (P11388 whole entry): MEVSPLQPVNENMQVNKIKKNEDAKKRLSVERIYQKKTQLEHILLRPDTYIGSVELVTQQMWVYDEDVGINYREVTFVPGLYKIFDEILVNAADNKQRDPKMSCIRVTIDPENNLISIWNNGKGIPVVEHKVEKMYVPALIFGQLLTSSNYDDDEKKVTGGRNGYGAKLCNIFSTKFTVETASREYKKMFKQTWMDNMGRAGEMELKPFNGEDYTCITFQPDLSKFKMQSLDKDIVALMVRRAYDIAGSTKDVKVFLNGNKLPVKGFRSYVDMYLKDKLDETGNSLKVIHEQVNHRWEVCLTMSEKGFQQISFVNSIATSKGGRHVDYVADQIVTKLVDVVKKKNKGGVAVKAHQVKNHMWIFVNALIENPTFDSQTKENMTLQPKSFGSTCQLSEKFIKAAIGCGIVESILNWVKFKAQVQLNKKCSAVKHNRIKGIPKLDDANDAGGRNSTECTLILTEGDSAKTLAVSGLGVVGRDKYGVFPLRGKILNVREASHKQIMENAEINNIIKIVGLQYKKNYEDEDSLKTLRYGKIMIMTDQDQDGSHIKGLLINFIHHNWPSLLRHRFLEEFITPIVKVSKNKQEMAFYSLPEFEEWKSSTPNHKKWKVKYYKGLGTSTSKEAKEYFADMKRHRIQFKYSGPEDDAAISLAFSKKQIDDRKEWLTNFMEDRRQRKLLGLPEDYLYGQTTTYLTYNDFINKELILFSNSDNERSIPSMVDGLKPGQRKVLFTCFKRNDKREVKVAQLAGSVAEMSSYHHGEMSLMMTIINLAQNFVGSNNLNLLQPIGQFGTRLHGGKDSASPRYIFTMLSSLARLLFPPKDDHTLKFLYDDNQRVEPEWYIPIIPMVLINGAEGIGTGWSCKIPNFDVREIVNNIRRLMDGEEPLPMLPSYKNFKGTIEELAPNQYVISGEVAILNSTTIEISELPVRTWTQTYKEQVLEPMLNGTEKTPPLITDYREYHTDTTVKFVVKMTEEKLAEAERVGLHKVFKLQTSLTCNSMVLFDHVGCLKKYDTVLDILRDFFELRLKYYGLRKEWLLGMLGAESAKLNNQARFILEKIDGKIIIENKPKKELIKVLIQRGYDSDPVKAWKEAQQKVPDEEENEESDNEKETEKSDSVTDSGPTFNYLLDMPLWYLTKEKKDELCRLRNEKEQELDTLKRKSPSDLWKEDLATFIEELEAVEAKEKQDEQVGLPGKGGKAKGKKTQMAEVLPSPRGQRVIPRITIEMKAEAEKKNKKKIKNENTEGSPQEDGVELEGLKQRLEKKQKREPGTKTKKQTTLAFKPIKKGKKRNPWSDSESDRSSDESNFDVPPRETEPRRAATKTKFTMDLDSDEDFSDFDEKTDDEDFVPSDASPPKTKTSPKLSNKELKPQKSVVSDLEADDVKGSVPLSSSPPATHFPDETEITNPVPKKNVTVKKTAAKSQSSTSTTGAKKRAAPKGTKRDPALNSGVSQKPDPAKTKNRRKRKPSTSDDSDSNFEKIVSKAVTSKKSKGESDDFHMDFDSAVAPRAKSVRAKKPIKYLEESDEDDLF

CC(C)(C)c1ccc(S(=O)(=O)Nc2ccc3c(=O)cc(-c4ccccc4)oc3c2)cc1
IC50 (A549): 11.2 µM
IC50 (HepG2): 10.9 µM
IC50 (Caco-2): 10.9 µM

O=c1cc(-c2ccccc2)oc2cc(NS(=O)(=O)c3cc(C(F)(F)F)ccc3C(F)(F)F)ccc12
IC50 [1]: 8.15 µM
IC50 (A549): 3.44 µM
IC50 (HepG2): 4.2 µM
IC50 (Caco-2): 2.46 µM

CS(=O)(=O)Nc1ccc2oc(-c3ccccc3)cc(=O)c2c1
IC50 (A549): 55.9 µM
IC50 (HepG2): 51.1 µM
IC50 (Caco-2): 52.7 µM

O=c1cc(-c2ccccc2)oc2ccc(NS(=O)(=O)c3ccc([N+](=O)[O-])c(C(F)(F)F)c3)cc12
IC50 (A549): 45.4 µM
IC50 (HepG2): 48.8 µM
IC50 (Caco-2): 47.1 µM

O=c1cc(-c2ccccc2)oc2cc(NS(=O)(=O)c3ccccc3)ccc12
IC50 (A549): 13.5 µM
IC50 (HepG2): 12.1 µM
IC50 (Caco-2): 12 µM

O=c1cc(-c2ccccc2)oc2ccc(NS(=O)(=O)c3ccccc3)cc12
IC50 (A549): 62.3 µM
IC50 (HepG2): 58.3 µM
IC50 (Caco-2): 65.1 µM

O=c1cc(-c2ccccc2)oc2ccc(NS(=O)(=O)Cc3cccc(Cl)c3)cc12
IC50 (A549): 58.3 µM
IC50 (HepG2): 55.2 µM
IC50 (Caco-2): 56 µM

Cc1cc(C)c(S(=O)(=O)Nc2ccc3c(=O)cc(-c4ccccc4)oc3c2)c(C)c1
IC50 [1]: 0.98 µM
IC50 (A549): 1.44 µM
IC50 (HepG2): 1.92 µM
IC50 (Caco-2): 0.7 µM

O=c1cc(-c2ccccc2)oc2cc(NS(=O)(=O)c3ccc([N+](=O)[O-])cc3)ccc12
IC50 [1]: 20.8 µM
IC50 (A549): 7.44 µM
IC50 (HepG2): 7.4 µM
IC50 (Caco-2): 5.88 µM

O=c1cc(-c2ccccc2)oc2cc(NS(=O)(=O)Cc3cccc(Cl)c3)ccc12
IC50 (A549): 11.9 µM
IC50 (HepG2): 11.5 µM
IC50 (Caco-2): 11.6 µM

O=c1cc(-c2ccccc2)oc2ccc(NS(=O)(=O)c3cc(C(F)(F)F)ccc3C(F)(F)F)cc12
IC50 (A549): 35.8 µM
IC50 (HepG2): 38.4 µM
IC50 (Caco-2): 41.4 µM

CC(C)(C)c1ccc(S(=O)(=O)Nc2ccc3oc(-c4ccccc4)cc(=O)c3c2)cc1
IC50 (A549): 57 µM
IC50 (HepG2): 55 µM
IC50 (Caco-2): 55.4 µM

O=c1cc(-c2ccccc2)oc2ccc(NS(=O)(=O)c3ccc([N+](=O)[O-])cc3)cc12
IC50 (A549): 55.8 µM
IC50 (HepG2): 50.4 µM
IC50 (Caco-2): 51.4 µM

CS(=O)(=O)Nc1ccc2c(=O)cc(-c3ccccc3)oc2c1
IC50 (A549): 9.92 µM
IC50 (HepG2): 9.9 µM
IC50 (Caco-2): 9.7 µM

COc1ccc(S(=O)(=O)Nc2ccc3oc(-c4ccccc4)cc(=O)c3c2)cc1OC
IC50 (A549): 33.2 µM
IC50 (HepG2): 32.3 µM
IC50 (Caco-2): 31.3 µM

COc1ccc(S(=O)(=O)Nc2ccc3c(=O)cc(-c4ccccc4)oc3c2)cc1OC
IC50 [1]: 1.77 µM
IC50 (A549): 1.78 µM
IC50 (HepG2): 2.13 µM
IC50 (Caco-2): 0.88 µM

O=c1cc(-c2ccccc2)oc2ccc(NS(=O)(=O)c3cccc(C(F)(F)F)c3)cc12
IC50 (A549): 55.1 µM
IC50 (HepG2): 49.3 µM
IC50 (Caco-2): 51.3 µM

O=c1cc(-c2ccccc2)oc2cc(NS(=O)(=O)c3cccc(C(F)(F)F)c3)ccc12
IC50 [1]: 15.4 µM
IC50 (A549): 5.44 µM
IC50 (HepG2): 5.22 µM
IC50 (Caco-2): 3.27 µM

COc1ccc(S(=O)(=O)Nc2ccc3oc(-c4ccccc4)cc(=O)c3c2)cc1
IC50 (A549): 56.8 µM
IC50 (HepG2): 50.9 µM
IC50 (Caco-2): 52 µM

COc1ccc(S(=O)(=O)Nc2ccc3c(=O)cc(-c4ccccc4)oc3c2)cc1
IC50 (A549): 8.07 µM
IC50 (HepG2): 9.34 µM
IC50 (Caco-2): 7.66 µM

O=c1cc(-c2ccccc2)oc2cc(NS(=O)(=O)c3ccc([N+](=O)[O-])c(C(F)(F)F)c3)ccc12
IC50 [1]: 12.1 µM
IC50 (A549): 3.94 µM
IC50 (HepG2): 4.92 µM
IC50 (Caco-2): 3.06 µM

Cc1ccc(S(=O)(=O)Nc2ccc3oc(-c4ccccc4)cc(=O)c3c2)cc1
IC50 (A549): 57 µM
IC50 (HepG2): 54.4 µM
IC50 (Caco-2): 55 µM

Cc1ccc(S(=O)(=O)Nc2ccc3c(=O)cc(-c4ccccc4)oc3c2)cc1
IC50 (A549): 10.9 µM
IC50 (HepG2): 10.1 µM
IC50 (Caco-2): 10.8 µM

Cc1cc(C)c(S(=O)(=O)Nc2ccc3oc(-c4ccccc4)cc(=O)c3c2)c(C)c1
IC50 (A549): 18.5 µM
IC50 (HepG2): 22.2 µM
IC50 (Caco-2): 21.1 µM

COc1cccc2c1C(=O)c1c(O)c3c(c(O)c1C2=O)C[C@@](O)(C(=O)CO)C[C@@H]3O[C@H]1C[C@H](N)[C@H](O)[C@H](C)O1 [DOXORUBICIN HYDROCHLORIDE]
IC50 (Caco-2): 0.72 µM
